According to article PMC12123458, “Unraveling Small Molecule-Mediated Sirtuin 3 Activation at a Distinct Binding Site for Cardioprotective Therapies” (ACS Central Science, 2025):

How the values were obtained:
SIRT3 = target: T1, SIRT3 (Homo sapiens, UniProt Q9NTG7); test: Coupled enzymatic assay, acetylated MnSOD-K122 substrate; type: biochemical; details: 100 μM
T1 construct: purchased Enzo Life Sciences BML-AK557-0001
T1 sequence (Q9NTG7 1-399): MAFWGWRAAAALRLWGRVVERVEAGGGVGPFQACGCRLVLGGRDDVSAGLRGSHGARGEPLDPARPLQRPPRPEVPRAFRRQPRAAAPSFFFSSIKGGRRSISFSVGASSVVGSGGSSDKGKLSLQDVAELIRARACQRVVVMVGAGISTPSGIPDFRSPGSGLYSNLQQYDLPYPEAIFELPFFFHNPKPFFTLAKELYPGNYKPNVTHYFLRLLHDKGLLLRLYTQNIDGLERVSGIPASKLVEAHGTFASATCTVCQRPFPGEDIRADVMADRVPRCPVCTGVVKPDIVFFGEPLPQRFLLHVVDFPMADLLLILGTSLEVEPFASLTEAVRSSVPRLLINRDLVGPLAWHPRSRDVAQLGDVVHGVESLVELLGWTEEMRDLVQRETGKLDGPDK
Text: Additionally, we used surface plasmon resonance (SPR) to measure the binding of SKLB-11A to immobilized SIRT3. […] We next evaluated the selectivity of SKLB-11A for different SIRT family members. […] We next examined the functional specificity of SKLB-11A using coupled enzymatic assays with isoform-specific, physiologically relevant substrates: acetylated p53-K381 for SIRT1, acetylated α-tubulin-K25 for SIRT2, acetylated MnSOD-K122 for SIRT3, and succinylated CPS1-K537 for SIRT5 (Supplementary Table S3). […] Using Schrödinger molecular docking simulations, we assessed the binding interactions of SKLB-11A with SIRT isoforms.

SIRT1 = target: T2, SIRT1 (Rattus norvegicus, UniProt A0A0G2JZ79); test: CETSA of SIRT1 in H9c2 cells; type: cell-based
T2 construct: endogenous in cells; host or cells: H9c2
T2 sequence (A0A0G2JZ79 1-741): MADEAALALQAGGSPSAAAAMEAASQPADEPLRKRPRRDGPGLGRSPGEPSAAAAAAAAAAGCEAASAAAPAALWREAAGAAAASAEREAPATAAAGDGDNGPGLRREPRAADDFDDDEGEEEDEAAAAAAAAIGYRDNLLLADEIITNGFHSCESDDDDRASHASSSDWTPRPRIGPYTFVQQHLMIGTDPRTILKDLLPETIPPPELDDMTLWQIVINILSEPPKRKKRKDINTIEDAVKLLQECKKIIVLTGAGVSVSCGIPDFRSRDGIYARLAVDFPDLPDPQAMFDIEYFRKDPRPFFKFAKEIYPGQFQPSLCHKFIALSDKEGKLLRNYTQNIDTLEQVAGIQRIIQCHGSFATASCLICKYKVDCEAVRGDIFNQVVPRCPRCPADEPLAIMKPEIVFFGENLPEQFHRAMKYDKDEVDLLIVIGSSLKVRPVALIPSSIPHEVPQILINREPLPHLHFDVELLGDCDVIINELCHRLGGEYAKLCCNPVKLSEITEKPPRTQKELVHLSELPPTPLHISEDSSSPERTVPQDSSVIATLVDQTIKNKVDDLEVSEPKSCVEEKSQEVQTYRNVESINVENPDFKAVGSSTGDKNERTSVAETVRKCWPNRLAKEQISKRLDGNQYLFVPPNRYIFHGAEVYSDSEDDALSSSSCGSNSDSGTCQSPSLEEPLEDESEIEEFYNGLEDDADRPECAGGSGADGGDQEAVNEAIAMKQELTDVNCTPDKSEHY

[1] = test system: LC3, p62, PINK1, Parkin in H9c2 cells; test: Autophagy/mitophagy markers in H9c2 cells (Western blot, immunofluorescence); type: cell-based; details: 24 h
Procedure: Proteomic analysis was conducted on H9c2 cells and murine cardiac tissues. Protein lysates were resolved via SDS-PAGE and transferred onto PVDF membranes. […] After washing, membranes were probed with secondary antibodies for 1 h at room temperature. Detection was facilitated by an ECL kit, with densitometry performed using ImageJ software to quantify protein expression, normalized against controls. The antibodies employed included: anti-SIRT3 (2627, Cell Signaling Technology), anti-acetylated lysine (9441, CST), anti-Ac.K68-MnSOD2 (ab137037, Abcam), anti-Ac.K122-MnSOD2 (ab214675, Abcam), anti-MnSOD2 (13141, CST), anti-LC3B (3868, CST), anti-p62 (8025, CST), anti-PINK1 (6946, CST), anti-Parkin (4211, CST), and anti-β-actin (ab8226, Abcam).

SIRT2 = target: T3, SIRT2 (Rattus norvegicus, UniProt Q5RJQ4); test: CETSA of SIRT2 in H9c2 cells; type: cell-based
T3 construct: endogenous in cells; host or cells: H9c2
T3 sequence (Q5RJQ4 1-350): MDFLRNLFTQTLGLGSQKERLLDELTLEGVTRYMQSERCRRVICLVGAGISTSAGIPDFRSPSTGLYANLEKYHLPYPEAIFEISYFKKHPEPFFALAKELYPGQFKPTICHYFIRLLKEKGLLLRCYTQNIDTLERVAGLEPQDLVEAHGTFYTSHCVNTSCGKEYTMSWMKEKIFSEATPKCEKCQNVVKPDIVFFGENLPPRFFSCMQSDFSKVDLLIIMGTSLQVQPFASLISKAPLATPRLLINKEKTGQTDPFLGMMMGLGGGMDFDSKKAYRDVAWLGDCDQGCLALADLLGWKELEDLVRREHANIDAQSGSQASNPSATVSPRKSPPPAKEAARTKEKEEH

H9c2 cells [2] = test: OGD/R injury model in vitro; type: cell-based; details: pretreatment for 24 h, 10 μM
Procedure: An in vitro oxygen-glucose deprivation (OGD) injury model was established as described in a previous study. OGD injury was induced by incubating cells in glucose-free DMEM under hypoxic conditions (94% N2, 1% O2, and 5% CO2) for 6 h. Before the hypoxic phase, cells were treated with SKLB-11A (10 μM). The cells were then incubated in normoxic conditions with normal medium at 37 °C for the indicated time of 24 h as reperfusion. Untreated cells were used as controls.

H9c2 cells [3] = test: ATP content in Dox-treated H9c2 cells; type: cell-based; details: 10 μM
Procedure: ATP concentrations were detected by a firefly luciferin/luciferase-based ATP bioluminescence assay kit (Beyotime, China). The ATP contents were determined as nmol/mg protein by using SYNERGY 4 Microplate Reader (BioTek Instruments).

[4] = test system: myocardial ischemia/reperfusion (I/R) injury model; test: Mouse model of myocardial I/R injury; type: in vivo, C57BL/6J mice

## COC(=O)c1c(N)n(Cc2ccc(F)cc2)c2nc3ccccc3nc12 [SKLB-11A, Methyl 2-amino-1-(4-fluorobenzyl)-1H-pyrrolo[2,3-b]quinoxaline-3-carboxylate]
SIRT3
  effect on SIRT3 deacetylation activity: pronounced activation
SIRT1
  thermal stability of SIRT1 (CETSA): little effect on the thermal stability
[1]
  LC3-II and p62 (autophagic flux): increased LC3-II expression and reduced p62 levels
  expression of PINK1 and Parkin: increased the expression of PINK1 and Parkin
SIRT2
  thermal stability of SIRT2 (CETSA): little effect on the thermal stability
H9c2 cells [2]
  OGD/R-induced mitochondrial dysfunction: significantly ameliorated
H9c2 cells [3]
  ATP levels: capable of increasing ATP levels
[4]; 20 mg/kg ig, 24 h after I/R surgery
  I/R-induced elevations in serum LDH, CK-MB, BNP: partially reversed
[4]; 20 mg/kg ig, Evans blue/TTC, 24 h after I/R, vs I/R group
  infarct size: significant reduction in infarcted areas
[4]; 20 mg/kg ig, Masson's trichrome, 28 d after I/R
  I/R-induced cardiac fibrosis: markedly reduced
[4]; 20 mg/kg/day, ig, 1 week, I/R mice
  cardiac function (EF and FS): restored cardiac function
